In patent US12435059B2, “AMP-activated protein kinase inhibitors and methods of making and using the same” (The Regents of the University of Colorado, priority 2019, dated 2025):
Like-named read-outs stand apart in the source and are kept apart here.

Key:
Test in all cases: biochemical
Format in all cases: binding
[1] = molecular target: 468 kinases (Homo sapiens, UniProt O14733); settings: MKK7; read-out: % Inhibition @ 100 nM
[2] = molecular target: 468 kinases (Homo sapiens, UniProt P00519, F317L); settings: read-out: % Inhibition @ 100 nM
[3] = molecular target: 468 kinases (Homo sapiens, UniProt P00533); settings: EGFR; read-out: % Inhibition @ 100 nM
[4] = molecular target: 468 kinases (Homo sapiens, UniProt P00533, L858R); settings: EGFR(L858R); read-out: % Inhibition @ 100 nM
[5] = molecular target: 468 kinases (Homo sapiens, UniProt P06213); settings: INSR; read-out: % Inhibition @ 100 nM
[6] = molecular target: 468 kinases (Homo sapiens, UniProt P11802); settings: read-out: % Inhibition @ 100 nM
[7] = molecular target: 468 kinases (Homo sapiens, UniProt P29322); settings: EPHA8; read-out: % Inhibition @ 100 nM
[8] = molecular target: 468 kinases (Homo sapiens, UniProt P42336, H1047L); settings: PIK3CA(H1047L); read-out: % Inhibition @ 100 nM
[9] = molecular target: 468 kinases (Homo sapiens, UniProt P45984); settings: JNK2; read-out: % Inhibition @ 100 nM
[10] = molecular target: 468 kinases (Homo sapiens, UniProt P48730); settings: CSNK1D; read-out: % Inhibition @ 100 nM
[11] = molecular target: 468 kinases (Homo sapiens, UniProt P51617); settings: IRAK1; read-out: % Inhibition @ 100 nM
[12] = molecular target: 468 kinases (Homo sapiens, UniProt P54760); settings: EPHB4; read-out: % Inhibition @ 100 nM
[13] = molecular target: 468 kinases (Homo sapiens, UniProt Q04759); settings: PRKCQ; read-out: % Inhibition @ 100 nM
[14] = molecular target: 468 kinases (Homo sapiens, UniProt Q07002); settings: PCTK3; read-out: % Inhibition @ 100 nM
[15] = molecular target: 468 kinases (Homo sapiens, UniProt Q08881); settings: ITK; read-out: % Inhibition @ 100 nM
[16] = molecular target: 468 kinases (Homo sapiens, UniProt Q12866); settings: MERTK; read-out: % Inhibition @ 100 nM
[17] = molecular target: 468 kinases (Homo sapiens, UniProt Q13153); settings: PAK1; read-out: % Inhibition @ 100 nM
[18] = molecular target: 468 kinases (Homo sapiens, UniProt Q13557); settings: CAMK2D; read-out: % Inhibition @ 100 nM
[19] = molecular target: 468 kinases (Homo sapiens, UniProt Q15835); settings: GRK1; read-out: % Inhibition @ 100 nM
[20] = molecular target: 468 kinases (Homo sapiens, UniProt Q32MK0); settings: MLCK; read-out: % Inhibition @ 100 nM
[21] = molecular target: 468 kinases (Homo sapiens, UniProt Q59H18); settings: TNNI3K; read-out: % Inhibition @ 100 nM
[22] = molecular target: 468 kinases (Homo sapiens, UniProt Q5S007, G2019S); settings: LRRK2(G2019S); read-out: % Inhibition @ 100 nM
[23] = molecular target: 468 kinases (Homo sapiens, UniProt Q92630); settings: DYRK2; read-out: % Inhibition @ 100 nM
[24] = molecular target: 468 kinases (Homo sapiens, UniProt Q92918); settings: HPK1; read-out: % Inhibition @ 100 nM
[25] = molecular target: 468 kinases (Homo sapiens, UniProt Q99558); settings: NIK; read-out: % Inhibition @ 100 nM
[26] = molecular target: 468 kinases (Homo sapiens, UniProt Q99759); settings: MAP3K3; read-out: % Inhibition @ 100 nM
[27] = molecular target: 468 kinases (Homo sapiens, UniProt Q9BX84); settings: TRPM6; read-out: % Inhibition @ 100 nM
[28] = molecular target: 468 kinases (Homo sapiens, UniProt Q9HCP0); settings: CSNK1G1; read-out: % Inhibition @ 100 nM
[29] = molecular target: 468 kinases (Homo sapiens, UniProt Q9P286); settings: PAK7; read-out: % Inhibition @ 100 nM
[30] = molecular target: 468 kinases (Homo sapiens, UniProt Q9UQB9); settings: AURKC; read-out: % Inhibition @ 100 nM
[31] = molecular target: 468 kinases (Homo sapiens, UniProt Q9Y6E0); settings: MST3; read-out: % Inhibition @ 100 nM
[32] = system: 468 kinases; settings: for Number of kinases inhibited >90%: at 100 nM, of 468 kinases

Compound `CCN(CC)CCNC(=O)c1c(C)[nH]c(/C=C2\C(=O)Nc3ccc(CCO)cc32)c1C` [Compound No. 10, (Z)—N-(2-(Diethylamino)ethyl)-5-((5-(2-hydroxyethyl)-2-oxoindolin-3-ylidene)methyl)-2,4-dimethyl-1H-pyrrole-3-carboxamide] has an inhibition at 0.1 µM [1] of 0%, an inhibition at 0.1 µM ([2]; ABL1 (F317L)-nonphosphorylated) of 6% and an inhibition at 0.1 µM ([2]; ABL1 (F317L)-phosphorylated) of 22%. It also gave an inhibition at 0.1 µM [3] of 0%, an inhibition at 0.1 µM [4] of 0% and an inhibition at 0.1 µM [5] of 0%. The inhibition at 0.1 µM ([6]; CDK4-cyclinD1) was 5%, the inhibition at 0.1 µM ([6]; CDK4-cyclinD3) was 0% and the inhibition at 0.1 µM ([6]; CDK4) was 0%. It also gave an inhibition at 0.1 µM [7] of 0%, an inhibition at 0.1 µM [8] of 16% and an inhibition at 0.1 µM [9] of 0%. The inhibition at 0.1 µM [10] was 29%, the inhibition at 0.1 µM [11] was 99.3% and the inhibition at 0.1 µM [12] was 3%. For the same compound, the inhibition at 0.1 µM [13] was 0%, the inhibition at 0.1 µM [14] was 12% and the inhibition at 0.1 µM [15] was 12%. For the same compound, the inhibition at 0.1 µM [16] was 71%, the inhibition at 0.1 µM [17] was 0% and the inhibition at 0.1 µM [18] was 20%. It also gave an inhibition at 0.1 µM [19] of 39%, an inhibition at 0.1 µM [20] of 0% and an inhibition at 0.1 µM [21] of 0%. For the same compound, the inhibition at 0.1 µM [22] was 89%, the inhibition at 0.1 µM [23] was 18% and the inhibition at 0.1 µM [24] was 96.6%. The inhibition at 0.1 µM [25] was 17%, the inhibition at 0.1 µM [26] was 59% and the inhibition at 0.1 µM [27] was 0%. It also gave an inhibition at 0.1 µM [28] of 0%, an inhibition at 0.1 µM [29] of 0% and an inhibition at 0.1 µM [30] of 40%. The inhibition at 0.1 µM [31] was 20%, the “% Inhibition @ 100 nM” value ([32]; EGFR(L747-E749del, A750P)) was 0% and the “% Inhibition @ 100 nM” value ([32]; EGFR(L747-S752del, P753S)) was 23%. For the same compound, the “% Inhibition @ 100 nM” value ([32]; EGFR(L747-T751del,Sins)) was 37%, the “% Inhibition @ 100 nM” value ([32]; FLT3(ITD)) was 99.3% and the “% Inhibition @ 100 nM” value ([32]; FLT3(ITD,D835V)) was 99.15%. For the same compound, the “% Inhibition @ 100 nM” value ([32]; FLT3(ITD,F691L)) was 100% and the “Number of kinases inhibited >90%” value [32] was 28 kinases.

`CCN(CC)CCNC(=O)c1c(C)[nH]c(/C=C2\C(=O)Nc3ccc(CCC(N)=O)cc32)c1C` [Compound No. 16, (Z)-5-((5-(3-Amino-3-oxopropyl)-2-oxoindolin-3-ylidene)methyl)-N-(2-(diethylamino)ethyl)-2,4-dimethyl-1H-pyrrole-3-carboxamide] showed an inhibition at 0.1 µM [1] of 17%, an inhibition at 0.1 µM ([2]; ABL1 (F317L)-phosphorylated) of 20% and an inhibition at 0.1 µM [3] of 64%. For the same compound, the inhibition at 0.1 µM [4] was 32%, the inhibition at 0.1 µM [5] was 25% and the inhibition at 0.1 µM ([6]; CDK4-cyclinD1) was 29%. It also gave an inhibition at 0.1 µM ([6]; CDK4-cyclinD3) of 16%, an inhibition at 0.1 µM ([6]; CDK4) of 9% and an inhibition at 0.1 µM [7] of 0%. The inhibition at 0.1 µM [8] was 15%, the inhibition at 0.1 µM [9] was 32% and the inhibition at 0.1 µM [10] was 9%. The inhibition at 0.1 µM [11] was 96.9%, the inhibition at 0.1 µM [12] was 0% and the inhibition at 0.1 µM [13] was 0%. The inhibition at 0.1 µM [14] was 9%, the inhibition at 0.1 µM [15] was 12% and the inhibition at 0.1 µM [16] was 68%. For the same compound, the inhibition at 0.1 µM [17] was 0%, the inhibition at 0.1 µM [18] was 4% and the inhibition at 0.1 µM [19] was 37%. For the same compound, the inhibition at 0.1 µM [20] was 0%, the inhibition at 0.1 µM [21] was 5% and the inhibition at 0.1 µM [22] was 88%. It also gave an inhibition at 0.1 µM [23] of 34%, an inhibition at 0.1 µM [24] of 95.2% and an inhibition at 0.1 µM [25] of 16%. The inhibition at 0.1 µM [26] was 48%, the inhibition at 0.1 µM [27] was 29% and the inhibition at 0.1 µM [28] was 16%. It also gave an inhibition at 0.1 µM [29] of 11%, an inhibition at 0.1 µM [30] of 98.4% and an inhibition at 0.1 µM [31] of 19%. For the same compound, the “% Inhibition @ 100 nM” value ([32]; EGFR(L747-E749del, A750P)) was 27%, the “% Inhibition @ 100 nM” value ([32]; EGFR(L747-S752del, P753S)) was 5% and the “% Inhibition @ 100 nM” value ([32]; EGFR(L747-T751del,Sins)) was 11%. For the same compound, the “% Inhibition @ 100 nM” value ([32]; FLT3(ITD)) was 97.2%, the “% Inhibition @ 100 nM” value ([32]; FLT3(ITD,D835V)) was 100% and the “% Inhibition @ 100 nM” value ([32]; FLT3(ITD,F691L)) was 100%. For the same compound, the “Number of kinases inhibited >90%” value [32] was 33 kinases.
